For 43 compounds, AC50, EC50 and IC50 results are on record in ChEMBL document CHEMBL1201862, “PubChem BioAssay data set” (2004).

As a reminder, the AC50 is the concentration at which the activity in the assay is half-maximal.

The target of one assay is Cytochrome P450 2C9 (Homo sapiens, UniProt P11712).
A short description of assay [1]: NIH-3T3 fibroblast cytotoxicity, dose response, cytotoxicity control, cell-based, fluorescence, Alamar Blue, secondary assay (AID 2327).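 Further: NIH-3T3 mouse fibroblasts cultured with fluconazole at 8 µg/mL.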 It is filed as functional. (In general: Resazurin is reduced to fluorescent resorufin, in cell work by metabolically active cells.)
The nature of assay [2]: C. albicans growth with fluconazole, confirmation, fluorescence, retest (AID 2467). Type of assay: functional, cell-based.
Assay [3] has as its target T1, Corticotropin-releasing factor receptor 2/Corticotropin-releasing factor-binding protein (Homo sapiens, UniProt P24387+Q13324).
T1 sequence (Q13324 whole entry): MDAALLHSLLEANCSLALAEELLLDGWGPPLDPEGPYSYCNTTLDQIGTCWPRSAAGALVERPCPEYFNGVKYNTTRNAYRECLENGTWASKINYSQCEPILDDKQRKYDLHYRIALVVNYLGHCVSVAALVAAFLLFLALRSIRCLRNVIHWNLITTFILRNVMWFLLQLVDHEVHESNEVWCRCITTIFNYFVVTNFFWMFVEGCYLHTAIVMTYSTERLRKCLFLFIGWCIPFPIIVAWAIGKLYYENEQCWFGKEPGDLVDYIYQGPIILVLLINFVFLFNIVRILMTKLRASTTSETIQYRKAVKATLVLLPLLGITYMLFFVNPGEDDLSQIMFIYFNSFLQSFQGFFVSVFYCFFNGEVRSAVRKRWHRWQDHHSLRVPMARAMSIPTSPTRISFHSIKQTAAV
T1 sequence (P24387 whole entry): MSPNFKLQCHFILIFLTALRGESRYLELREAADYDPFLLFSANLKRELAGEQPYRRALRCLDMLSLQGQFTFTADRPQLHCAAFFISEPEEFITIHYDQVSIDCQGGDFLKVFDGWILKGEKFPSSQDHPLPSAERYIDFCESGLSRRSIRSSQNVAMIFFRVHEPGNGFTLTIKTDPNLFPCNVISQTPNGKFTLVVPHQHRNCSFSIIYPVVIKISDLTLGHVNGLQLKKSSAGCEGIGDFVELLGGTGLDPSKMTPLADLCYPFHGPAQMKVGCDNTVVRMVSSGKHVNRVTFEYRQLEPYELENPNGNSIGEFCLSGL
Description: activators of CRF receptor 2 with binding protein – uHTS hits, confirmation (AID 602473). Type of assay: functional. The conditions noted are these: read-out: EC50_Mean.

Assay [4] addresses T1, Corticotropin-releasing factor receptor 2/Corticotropin-releasing factor-binding protein. Description: Dose Response confirmation of uHTS hits for small molecule antagonists of the CRF-binding protein and CRF-R2 receptor complex. Type of assay: functional. The conditions noted are these: read-out: IC50_Mean.
Assay [5] in a line: inhibitors of intracellular T. cruzi replication, confirmation, NIH3T3 host cells, beta-gal luminescence (AID 2044).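 Further: intracellular parasites grown in NIH/3T3 mouse fibroblasts as host cells; luminescent beta-galactosidase reporter signal from transgenic T. cruzi replicating inside host cells; inhibitors lower the luminescence signal.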 Type of assay: functional, cell-based.
Assay [6] in a line: cytotoxicity toward NIH3T3 fibroblasts, dose response, counter-screen, cell-based, ATP luminescence, mouse fibroblasts (AID 2010).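 Further: cells exposed to compound for about 90 hours before reading.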 Type of assay: functional. (A counterscreen serves to expose hits that act by an unwanted route or on another target.)
The test system of a further assay is H4. Description: Luminescence Cell-Based Dose Response HTS to Identify Activators of 5'UTR Stem-Loop Driven Prion Protein mRNA Translation in H4 Neuroglioblastoma Cells. [Related pubchem assays: 1829 (Project Summary), 1814 (Primary HTS)]. It is filed as functional. The settings on record: Homo sapiens.
The target in assay [7] is T2, Rac GTPase-activating protein 1 (Homo sapiens, UniProt Q9H0H5).
T2 sequence (Q9H0H5 whole entry): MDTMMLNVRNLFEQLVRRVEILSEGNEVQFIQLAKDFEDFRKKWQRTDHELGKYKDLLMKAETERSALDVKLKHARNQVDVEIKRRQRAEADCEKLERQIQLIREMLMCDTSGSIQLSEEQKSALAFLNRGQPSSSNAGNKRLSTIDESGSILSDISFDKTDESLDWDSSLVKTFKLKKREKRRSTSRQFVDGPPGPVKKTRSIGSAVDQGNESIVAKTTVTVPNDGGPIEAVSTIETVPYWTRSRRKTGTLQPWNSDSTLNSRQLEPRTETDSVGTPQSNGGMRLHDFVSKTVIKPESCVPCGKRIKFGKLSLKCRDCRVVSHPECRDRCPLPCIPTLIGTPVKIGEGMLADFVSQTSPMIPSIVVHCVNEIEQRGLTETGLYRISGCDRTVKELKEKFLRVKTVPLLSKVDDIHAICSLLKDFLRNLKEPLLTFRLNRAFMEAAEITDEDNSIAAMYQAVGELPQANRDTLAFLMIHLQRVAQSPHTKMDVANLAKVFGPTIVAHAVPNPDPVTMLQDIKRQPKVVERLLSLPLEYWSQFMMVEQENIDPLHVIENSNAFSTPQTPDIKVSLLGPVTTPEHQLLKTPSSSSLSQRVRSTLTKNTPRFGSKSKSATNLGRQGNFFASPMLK
Description: MgcRacGAP GTPase-activating activity inhibitors, confirmation, biochemical, ADP Hunter fluorescence, primary and confirmatory (AID 624330). Type of assay: functional.

The nature of assay [8]: Luminescence Cell-Based Dose Retest to Confirm Inhibitors of Cancer Stem Cells. [Related pubchem assays (depositor defined):AID2717, AID2721]. The conditions noted are these: Homo sapiens. It is filed as functional.
The test system of the next assay is INS1. Description: beta cell apoptosis inhibitors, cytokine rescue, dose response, luminescence, retest (AID 449756).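 Further: cell death triggered by IL-1 beta plus TNF-alpha plus IFN-gamma mixture; protective hits raise ATP signal compared with cytokine alone wells.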 The conditions noted are these: Rattus norvegicus. Type of assay: functional, cell-based.
Another assay has as its system Streptococcus. Description: Group A Streptococcus viability loss, dose response, counter-screen for streptokinase expression inhibitor project, luminescence, BacTiterGlo (AID 1915).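 Further: potency for reduction of bacterial viability or growth.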 Type of assay: functional, organism-based.
The test system of assay [9] is Streptococcus sp. 'group A'. Description: growth inhibition of control SK(-) GAS strain, dose response, counter-screen for streptokinase expression inhibitor project, luminescence, kanamycin, BacTiterGlo, confirmation (AID 1900). Type of assay: functional, organism-based.
Assay [10] is described as follows: P. falciparum Dd2 growth inhibitors, dose response, SYBR Green, cherry-picked samples (AID 1159567). Type of assay: functional, cell-based.

Calls of active or inactive are those of the source.

Cytochrome P450 2C9, sequence (P11712 whole entry): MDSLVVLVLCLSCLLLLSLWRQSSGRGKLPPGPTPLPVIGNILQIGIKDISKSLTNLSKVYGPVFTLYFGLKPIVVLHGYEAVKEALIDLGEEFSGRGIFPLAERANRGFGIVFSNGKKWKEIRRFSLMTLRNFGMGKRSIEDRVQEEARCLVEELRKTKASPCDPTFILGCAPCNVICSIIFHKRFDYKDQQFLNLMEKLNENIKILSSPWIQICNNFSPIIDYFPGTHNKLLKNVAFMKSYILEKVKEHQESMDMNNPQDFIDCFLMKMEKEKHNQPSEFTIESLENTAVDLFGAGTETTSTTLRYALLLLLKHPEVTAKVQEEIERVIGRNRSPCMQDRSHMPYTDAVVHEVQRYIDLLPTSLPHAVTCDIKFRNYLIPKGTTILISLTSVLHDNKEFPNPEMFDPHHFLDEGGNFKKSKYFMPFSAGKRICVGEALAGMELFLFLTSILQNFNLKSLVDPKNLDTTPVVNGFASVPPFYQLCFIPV

Turning to `COc1ccc2c(c1)c(CC(=O)O)c(C)n2Cc1ccc(Cl)cc1`, at Cytochrome P450 2C9, the AC50 is 12.6 µM (inconclusive).
As to `CC(C)CCOc1ccc(NC(=O)C2OC3OC(C)(C)OC3C3OC(C)(C)OC23)cc1` (stereo unspecified), the AC50 at Cytochrome P450 2C9 is 25.1 µM (inconclusive).
With `Cc1cccc(NC(=O)NNC(=O)c2cc3ccccc3cc2O)c1C`, the values for the EC50 in assay [1] and in assay [2] were 80.6 µM (active) and > 38 µM (not active), respectively.
Consider `CCOc1ccc(C(CCc2ccccc2)NC(=O)c2ccccc2OC)cc1OCC` (stereo unspecified), for which the EC50 in assay [3] is > 53 µM (inactive). In addition, in [4], the IC50 was > 47.1 µM (inactive).
`COc1cc(OC)c(NC(S)=NCc2ccccc2)cc1Cl`: the figures for the EC50 in [1] and in assay [2] were > 160 µM (inactive) and > 38 µM (not active), respectively.
For the compound `O=C(NNC(=O)c1ccccc1C(=O)O)c1ccc(O)cc1`, in assay [3], the EC50 is > 53 µM (inactive). The IC50 in [4] is > 47.1 µM (inactive).
As to `CSc1cnc2c(N)nc(N(C)C)nc2n1`, the EC50 in assay [1] is > 160 µM (inconclusive); in [2], 2.63 µM (active).
With `CS(=O)(=O)Oc1ccc(Br)c2cccnc12`, the EC50 in assay [3] is > 53 µM (inactive). Also, the IC50 in assay [4] was > 47.1 µM (inactive).
Consider `Cc1c(C(=O)O)sc(S(=O)(=O)N2CCN(C(=O)Cc3ccc(F)cc3)CC2)c1C(=O)O`, for which the EC50 in [3] was > 53 µM (inactive). Further, in assay [4], the IC50 was > 47.1 µM (inactive).
Turning to `CC(=O)c1c(O)cc(=O)n(-c2ccccc2)c1-c1cccc2ccccc12`, the AC50 at Cytochrome P450 2C9 was 22.4 µM (inconclusive).
As for `c1ccc(COc2ccccc2CNC23CC4CC(CC(C4)C2)C3)cc1`, the EC50 in [5] was 2.36 µM (active); in [1] it was > 160 µM (inactive); in assay [6], > 60 µM (not active); in assay [2], > 38 µM (not active).
As to `COc1ccccc1CNc1nc(-c2ccc(N(C)C)cc2)nc2ccccc12`, the AC50 at Cytochrome P450 2C9 was 0.794 µM (inconclusive).
For `COc1ccc(/C=C2\CCn3c2nc2ccccc2c3=O)cc1OC`, in the assay with H4, the EC50 is 1.08 µM (active).
As for `Cc1ccc(S(=O)(=O)c2nc(S(C)(=O)=O)sc2N2CCOCC2)cc1`, the EC50 in assay [3] was > 53 µM (inactive). For the same compound, the IC50 in assay [4] is > 47.1 µM (inactive).
As to `O=C(CCCOc1ccc(Cl)cc1)Nc1cccc(C(=O)O)c1`, the EC50 in [3] is > 53 µM (inactive). Further, the IC50 in assay [4] is > 47.1 µM (inactive).
`COc1ccc(CN2CCN(Cc3ccccc3OC)CC2)cc1`: the IC50 in [7] is 74.7 µM (active).
In the case of `Cc1noc(C)c1S(=O)(=O)N1CCC(C(=O)N2CCN(c3ccc(Cl)cc3)CC2)CC1`, the EC50 in assay [3] is > 53 µM (inactive). For the same compound, the IC50 in [4] was > 47.1 µM (inactive).
`CC1(C)CC(=O)C2=C(C1)OC1=C(C(=O)CC(C)(C)C1)C2c1cc([N+](=O)[O-])cc([N+](=O)[O-])c1O`: the EC50 in assay [1] is > 160 µM (inactive); in assay [2] it was 0.221 µM (active).
As to `c1cc2c(cc1CNc1ccc(N3CCOCC3)cc1)OCO2`, in assay [7], the IC50 is 6.57 µM (active).
For `Cn1c(=S)c2nc(SCc3cccnc3)[nH]c2n(C)c1=O`, the AC50 at Cytochrome P450 2C9 is 6.31 µM (inconclusive).
Regarding `CC(C)Cc1ccc(C(C)C(=O)Nc2ccc(O)cc2)cc1` (stereo unspecified), in [3], the EC50 was 3.77 µM (active).
For `CCCc1ccc(C(=O)NNc2ccc(F)cc2)cc1`, the EC50 in assay [1] is 13 µM (inconclusive); in assay [2], > 38 µM (not active). Also, the AC50 in [8] is 1.03 µM (active).
As to `CN(C)c1ccc(/C=C2/C(=O)NC(=O)N(Cc3ccco3)C2=O)cc1`, the IC50 in [7] is 142 µM (active).
For `O=C1N=C(N2CCOCC2)S/C1=C1\C(=O)N(Cc2ccccc2)c2ccccc21`, in the assay with H4, the EC50 is 45 µM (inconclusive).
In the case of `CC(C)NC1=NN=C(c2ccc(Cl)c(Cl)c2)CS1`, in the assay with H4, the EC50 is 0.597 µM (active).
With `CC1CCCC(N2CCN(C(=O)c3ccc([N+](=O)[O-])cc3)CC2)C1` (stereo unspecified), the IC50 in assay [7] is 167 µM (active).
For `CCN(CC)CCN(C(=O)c1ccc2ccccc2c1)c1nc2ccc(OC)cc2s1`, the EC50 is > 160 µM (inactive) in [1] and > 38 µM (not active) in assay [2].
Turning to `c1ccc(CSc2nnc([C@@H]3CCCN3)o2)cc1`, the AC50 on Cytochrome P450 2C9 was 5.62 µM (inconclusive).
`COc1ccc(C#Cc2c(-c3ccccc3)n(-c3ccccc3)c3ccc(CO)cc23)cc1`: the EC50 in assay [3] is > 53 µM (inactive). Further, in assay [4], the IC50 is > 47.1 µM (inactive).
In the case of `CCN1C(=O)CC2CCCC1C2` (stereo unspecified), the EC50 in [3] was > 53 µM (inactive). Moreover, in assay [4], the IC50 is > 47.1 µM (inactive).
Take `CCN(CC)c1ccc(/C=N/NC(=O)OC)c(O)c1`: the IC50 in [7] is 66 µM (active).
Take `COc1cc(OC)c2cc(C(=O)N/N=C/c3ccccc3O)[nH]c2c1`: the half-maximal activity concentration (AC50) with INS1 is 3.06 µM (active). Also, the EC50 is 7.68 µM (active) with Streptococcus, 0.781 µM (active) in assay [9], 23.1 µM (active) in assay [1] and 1.47 µM (active) in assay [2].
As to `COc1cc(C=C2CN(C)C(=O)C2=O)ccc1O`, the IC50 in assay [7] is 19.6 µM (active).
As for `O=C(N/N=C/c1ccc(O)c2ccccc12)c1cccnc1`, the IC50 in assay [7] is 127 µM (active).
For the compound `CO[C@H]1CN(C)C(=O)c2cc(NC(=O)c3nc4ccccc4s3)ccc2OC[C@@H](C)NC[C@@H]1C`, the AC50 in assay [10] is 7.49 µM (active).
For the compound `COc1cccc(C#Cc2ccc([C@H]3[C@@H](C#N)N(C(=O)C4CCCC4)[C@@H]3CO)cc2)c1`, in assay [10], the AC50 is 5.62 µM (active).
As for `COc1cccc(-c2ccc3c(c2)[C@H]2[C@H](CCN2C(=O)C2CCCC2)[C@@H](CO)N3)c1`, the AC50 in assay [10] was 6.77 µM (active).
Regarding `CCC(=O)N1CC2(C1)[C@@H](c1ccc(-c3cccc(OC)c3)cc1)[C@@H](CO)N2C(C)=O`, the AC50 in assay [10] is 22.2 µM (active).
For `COc1ccc(S(=O)(=O)N(C)C[C@@H]2OCc3ccccc3-c3c(n(C)c4ccccc34)C(=O)N([C@H](C)CO)C[C@H]2C)cc1`, in [10], the AC50 was 4.65 µM (active).
Turning to `Cc1ccc(-c2ccc3c(c2)O[C@@H](CN(C)Cc2cccnc2)[C@@H](C)CN([C@@H](C)CO)S3(=O)=O)cc1`, the AC50 in assay [10] is 5.62 µM (active).
As to `Cc1ccc(-c2ccc([C@H]3[C@@H]4CN(S(=O)(=O)c5ccccc5)C[C@H]3N4)cc2)cc1`, in assay [10], the AC50 is 3.66 µM (active).
Still for that read-out and setting: for `COc1cccc(NC(=O)Nc2ccc3c(c2)C(=O)N(C)C[C@@H](OC)[C@H](C)CN[C@@H](C)CO3)c1` the value was 22.8 µM (active).
For the compound `Cc1ccc(-c2nn3c(O)c4c(nc3c2C)CCCC4)cc1`, the AC50 on Cytochrome P450 2C9 was 6.31 µM (inconclusive).
